Measured values: patent publication US6902881B2, “Compounds and methods for regulating cell differentiation” (priority 2000, dated 2005)

Columns and labels:
[1] = molecular target: T1, peroxisome proliferator-activated receptor (PPARγ) system (Homo sapiens, UniProt P37231); assay: Use of the peroxisome proliferator-activated receptor system
T1 sequence (P37231 1-505): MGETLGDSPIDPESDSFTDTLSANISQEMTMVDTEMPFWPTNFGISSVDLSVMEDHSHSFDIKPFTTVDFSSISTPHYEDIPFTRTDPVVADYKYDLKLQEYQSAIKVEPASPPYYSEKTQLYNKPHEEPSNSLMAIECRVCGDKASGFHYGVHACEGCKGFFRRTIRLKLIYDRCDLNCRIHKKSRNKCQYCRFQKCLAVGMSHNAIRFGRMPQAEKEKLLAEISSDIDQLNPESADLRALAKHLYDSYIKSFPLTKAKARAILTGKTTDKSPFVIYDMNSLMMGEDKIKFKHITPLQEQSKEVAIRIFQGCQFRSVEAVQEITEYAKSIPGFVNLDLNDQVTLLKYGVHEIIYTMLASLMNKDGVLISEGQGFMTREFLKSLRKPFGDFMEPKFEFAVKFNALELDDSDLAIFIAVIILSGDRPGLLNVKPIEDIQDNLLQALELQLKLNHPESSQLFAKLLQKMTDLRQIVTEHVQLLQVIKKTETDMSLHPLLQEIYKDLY

[2] = molecular target: T2, aryl hydrocarbon receptor (AhR) (Homo sapiens, UniProt P35869); conditions: μM range / concentrations used here (Phelan 1998); cited from earlier work
T2 sequence (P35869 11-848): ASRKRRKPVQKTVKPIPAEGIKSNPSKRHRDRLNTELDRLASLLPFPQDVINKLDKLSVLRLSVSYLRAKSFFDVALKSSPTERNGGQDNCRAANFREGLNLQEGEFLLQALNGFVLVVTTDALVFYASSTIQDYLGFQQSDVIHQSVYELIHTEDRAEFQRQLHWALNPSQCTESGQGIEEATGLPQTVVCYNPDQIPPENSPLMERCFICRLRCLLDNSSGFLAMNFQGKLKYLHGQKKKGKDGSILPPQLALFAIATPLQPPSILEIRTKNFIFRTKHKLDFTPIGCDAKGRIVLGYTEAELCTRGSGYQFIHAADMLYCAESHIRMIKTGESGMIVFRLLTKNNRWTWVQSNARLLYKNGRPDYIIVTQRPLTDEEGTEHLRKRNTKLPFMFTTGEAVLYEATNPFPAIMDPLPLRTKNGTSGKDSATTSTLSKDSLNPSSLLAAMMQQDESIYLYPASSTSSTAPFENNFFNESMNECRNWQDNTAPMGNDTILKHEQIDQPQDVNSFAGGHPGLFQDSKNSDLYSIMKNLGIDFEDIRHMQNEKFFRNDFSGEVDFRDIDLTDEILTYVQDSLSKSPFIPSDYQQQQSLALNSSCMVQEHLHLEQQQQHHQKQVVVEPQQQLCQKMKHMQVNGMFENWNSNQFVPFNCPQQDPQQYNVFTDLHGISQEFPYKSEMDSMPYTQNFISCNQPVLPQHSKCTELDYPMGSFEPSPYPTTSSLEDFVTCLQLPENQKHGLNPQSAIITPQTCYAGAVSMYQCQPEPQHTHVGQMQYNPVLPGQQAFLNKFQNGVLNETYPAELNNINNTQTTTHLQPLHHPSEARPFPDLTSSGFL

[3] = test system: Normal Fibroblast (3T3-L1 fibroblasts); assay: Cellular triacyl glycerol (TAG) content, normal fibroblast; type: cell-based; conditions: 3T3-L1 fibroblasts with insulin
Protocol: Expression of differentiation markers. Carcinoembryogenic antigen in cell supernatants collected each three days was assayed by standard ELISA determinations using an IMX assay for quantitative measurement of the antigen. Cellular triacyl glycerol content was measured spectrophotometrically by enzymatic hydrolysis and analysis of the amount of glycerol released using a standard assay, Triglyceride (INT) 10 (Sigma Diagnostics). […] The fluorescence is detected at 450 nm with an excitation of 365 nm, using a Jobin Ivon-Spex Fluoro Max-2 fluorimeter. The alkaline phosphatase activity detected was expressed in units of μmol/mg protein/min. These compounds also affect the timing for the fat accumulation. After 9 days of incubation with insulin and bovine pituitary extract, but without biliverdin, the fat droplets in the cells are small and scattered diffusely throughout the cell. These globules continue to enlarge to fill most of the cytoplasmic space by day 14. In contrast, by day 7 the cells incubated in the presence of biliverdin already contain large, grouped and prominent droplets. While the triacyl glycerol content increases in both HT 29 and liposarcoma cells, the fat droplets in HT 29 cells are smaller than those that fill the cytoplasm of the liposarcoma cells. 3T3-L1 fibroblasts differentiate into adipocytes in the presence of insulin (Table VII). In the absence of biliverdin, this hormone increases the triacylglycerol content of 3T3-L1 fibroblasts by 3-fold relative to control. When biliverdin is added, a progressively greater content of triacyl glycerol is achieved at day 9. The increase is dependent on the biliverdin concentration. At the highest concentration used, 4×10^−7 M, there is a 5.8-fold increase of triacyl glycerol content over that of the undifferentiated fibroblasts (Table VII). This almost doubles the amount in the cells incubated with differentiation medium alone and is nearly as high as observed with troglitazone. At a lower biliverdin concentration, 10^−8 M, there is a 3.5-fold increase compared to control values. Remarkably, the amounts of biliverdin required to achieve the effects on proliferation, cell cycle and differentiation marker up-regulation, i.e. 10^−7-10^−06 M, are the same as those needed to re-establish the capacity of embryos depleted of the tetrapyrrole by treatment with UV-light to form a dorsal axis.

C=CC1=C(C)/C(=C/C2=NC(=C\c3[nH]c(/C=C4\NC(=O)C(C)=C4C=C)c(C)c3CCC(=O)O)/C(CCC(=O)O)=C2C)NC1=O [Biliverdin, biliverdin IXα]
use of the PPARγ system [1]: does not use | activation of the aryl hydrocarbon receptor [2]: binds and is activated | increase of triacyl glycerol content over undifferentiated fibroblasts ([3]; biliverdin 4×10^−7 M, day 9): 5.8 fold | increase of triacyl glycerol content compared to control values ([3]; biliverdin 10^−8 M): 3.5 fold
